Experimental data taken from ChEMBL document CHEMBL1129505, “Time-dependent inactivation of aromatase by 6-alkylandrosta-1,4-diene-3,17-diones. Effects of length and configuration of 6-alkyl group” (J Med Chem, 1996).

Experiments:
[1] = target: T1, Aromatase (Homo sapiens, UniProt P11511); experiment: Apparent inhibition constant (Ki) Cytochrome P450 19A1; conditions: read-out: Ki app
T1 sequence (P11511 whole entry): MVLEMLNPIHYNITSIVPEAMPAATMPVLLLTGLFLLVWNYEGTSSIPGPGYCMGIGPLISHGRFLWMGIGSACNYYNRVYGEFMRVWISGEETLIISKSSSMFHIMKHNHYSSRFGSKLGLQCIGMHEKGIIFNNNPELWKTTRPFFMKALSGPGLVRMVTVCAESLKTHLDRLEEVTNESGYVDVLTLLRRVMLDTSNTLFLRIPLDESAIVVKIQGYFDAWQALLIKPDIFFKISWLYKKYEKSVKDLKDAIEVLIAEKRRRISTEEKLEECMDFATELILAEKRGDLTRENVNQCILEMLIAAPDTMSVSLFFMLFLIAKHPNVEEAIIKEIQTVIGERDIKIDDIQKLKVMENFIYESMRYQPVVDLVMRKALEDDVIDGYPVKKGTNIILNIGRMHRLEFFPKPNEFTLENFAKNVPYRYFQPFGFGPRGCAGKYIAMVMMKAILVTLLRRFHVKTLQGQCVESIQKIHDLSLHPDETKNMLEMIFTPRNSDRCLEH

[2] = target: T1, Aromatase; experiment: Catalytic rate constant for time dependent inactivation of Cytochrome P450 19A1; NT= time-dependent inactivation not observed
[3] = target: T1, Aromatase; experiment: In vitro inhibitory activity against Cytochrome P450 19A1 in human placental microsomes; design: species or system Placenta
[4] = target: T1, Aromatase; experiment: Inactivation constant (Ki) for time-dependent inactivation of Cytochrome P450 19A1; NT= time-dependent inactivation not observed
[5] = target: T2, CYP19A1 (aromatase) (Homo sapiens, UniProt P11511); experiment: Catalytic rate constant for time dependent inactivation of Cytochrome P450 19A1
T2 sequence (P11511 whole entry): T1 sequence (P11511 whole entry)

[6] = target: T1, Aromatase; experiment: Inactivation constant (Ki) for time-dependent inactivation of Cytochrome P450 19A1

| Compound | Ki [1] [µM] | K inact [2] | IC50 [3] [µM] | Ki [4] | kinact [5] [s⁻¹] | Ki [6] [µM] |
| --- | --- | --- | --- | --- | --- | --- |
| CCCCC[C@@H]1CC2C(CCC3(C)C(=O)CCC23)C2(C)C=CC(=O)C=C12 (stereo not given in full) | 0.005 | Inactivation not observed | 0.054 | Inactivation not observed | – | – |
| C[C@@H]1CC2C(CCC3(C)C(=O)CCC23)C2(C)C=CC(=O)C=C12 (stereo not given in full) | – | – | – | – | 0.00102 | – |
| CCC[C@@H]1CC2C(CCC3(C)C(=O)CCC23)C2(C)C=CC(=O)C=C12 (stereo not given in full) | 0.007 | Inactivation not observed | 0.06 | Inactivation not observed | – | – |
| CCCCCCC[C@@H]1CC2C(CCC3(C)C(=O)CCC23)C2(C)C=CC(=O)C=C12 (stereo not given in full) | 0.0078 | Inactivation not observed | 0.06 | Inactivation not observed | – | – |
| CCCCCC[C@H]1CC2C(CCC3(C)C(=O)CCC23)C2(C)C=CC(=O)C=C12 (stereo not given in full) | 0.025 | – | 0.28 | – | 0.000833 | 0.65 |
| CCCCCC[C@@H]1CC2C(CCC3(C)C(=O)CCC23)C2(C)C=CC(=O)C=C12 (stereo not given in full) | 0.008 | Inactivation not observed | 0.076 | Inactivation not observed | – | – |
| CCCC[C@@H]1CC2C(CCC3(C)C(=O)CCC23)C2(C)C=CC(=O)C=C12 (stereo not given in full) | 0.014 | Inactivation not observed | 0.18 | Inactivation not observed | – | – |
| CCCCCCC[C@H]1CC2C(CCC3(C)C(=O)CCC23)C2(C)C=CC(=O)C=C12 (stereo not given in full) | 0.02 | Inactivation not observed | 0.25 | Inactivation not observed | – | – |
| CCCCC[C@H]1CC2C(CCC3(C)C(=O)CCC23)C2(C)C=CC(=O)C=C12 (stereo not given in full) | 0.011 | Inactivation not observed | 0.14 | Inactivation not observed | – | – |
| CCC[C@H]1CC2C(CCC3(C)C(=O)CCC23)C2(C)C=CC(=O)C=C12 (stereo not given in full) | 0.022 | – | 0.27 | – | 0.000733 | 0.339 |
| CC[C@H]1CC2C(CCC3(C)C(=O)CCC23)C2(C)C=CC(=O)C=C12 (stereo not given in full) | 0.019 | – | 0.25 | – | 0.00108 | 0.196 |
| CC[C@@H]1CC2C(CCC3(C)C(=O)CCC23)C2(C)C=CC(=O)C=C12 (stereo not given in full) | 0.0047 | Inactivation not observed | 0.054 | Inactivation not observed | – | – |
| CCCC[C@H]1CC2C(CCC3(C)C(=O)CCC23)C2(C)C=CC(=O)C=C12 (stereo not given in full) | 0.016 | – | 0.2 | – | 0.000483 | 0.571 |
| C[C@H]1CC2C(CCC3(C)C(=O)CCC23)C2(C)C=CC(=O)C=C12 (stereo not given in full) | – | – | – | – | 0.0008 | – |
